For 21 molecules, Dmax and Ki results are on record in patent US20240317706A1, “COMPOUNDS THAT MEDIATE PROTEIN DEGRADATION AND METHODS OF USE THEREOF” (Monte Rosa Therapeutics, Inc., priority 2021, published 2024).

One experiment has as its target T1, CDK2 (Homo sapiens, UniProt P24941).
T1 construct: HEK293 clonal lines with CRISPR KI HiBiT tag on CDK2 proteins; host or cells: HEK293 clonal line, CRISPR knock-in HiBiT-CDK2, stably expressing LgBiT
In words: HiBiT assay (CDK2 degradation). Conditions: HEK293 clonal line with CRISPR KI HiBiT tag on CDK2, 24 hours, HiBiT Lysis Reagent. Type of experiment: cell-based. Here is the method:
HEK293 clonal lines with CRISPR KI HiBiT tag on CDK2 proteins and stably expressing LgBiT protein were obtained from Promega (Madison, WI). Cells were plated at 5000 cells per well using Multiflo (BioTek) in 384-well white solid bottom plates (Corning, 3570BC) in 25 ul volume in DMEM media (DMEM, high glucose, HEPES, no phenol red (ThermoFisher Scientific, 21063029)) containing 10% FBS (Corning, 35-075-CV), 1% Penicillin/Streptomycin (ThermoFisher Scientific, 15140-122). Cells were incubated for 16 hours at 37° C., 5% CO2. 75 nL of a compound at 30 μM were dosed into the plate using an Echo® 650 liquid handler (Labcyte). Cells were incubated at 37° C., 5% CO2 for 24 hours. 5 ul of HiBiT Lysis Reagent (Promega, N3030) is added using Combi Multidrop (ThermoFisher Scientific), plates are incubated for 15′ at 37° C., 5% CO2 and then signal was read on a Pherastar FSX using “LUM plus” optic module.
Analysis was performed in Scinamic (Scinamic, Cambridge, MA). Luminescence response (R) was calculated by the formula: response=100*(S−N)/(P−N) where S is the signal of the well, N and P the mean negative and positive control values respectively of the same plate. The luminescence response was then fitted in Scinamic using a 3-parameter agonist logistic fit (hillslope=1, EC50>0, top/bottom unconstrained).
(HiBiT is a short tag that completes a luciferase, so light tracks the accessible tagged protein.)

The next experiment addresses CRBN-DDB1 (Homo sapiens, UniProt Q96SW2). The experiment can be described thus: Compound binding to CRBN by HTRF assay. As to conditions: CRBN-DDB1 2.5 nM, Cy5-Thalidomide 100 nM, 30 min; Ki from geometric mean IC50 by Cheng-Prustoff transformation. The method, boiled down:
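HTRF displacement of Cy5-thalidomide probe (100 nM) from His-CRBN-DDB1 (2.5 nM) with anti-His terbium cryptate, in HEPES/NaCl/TCEP/EDTA/Tween20 buffer. 10-point 1:3 compound series, 30 min at ambient temperature; signal normalised to DMSO and lenalidomide controls, IC50 fitted and Ki derived by Cheng-Prusoff.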
A general note: TR-FRET usually uses a lanthanide donor and a delayed reading to cut background.

CRBN-DDB1, sequence (Q96SW2 whole entry): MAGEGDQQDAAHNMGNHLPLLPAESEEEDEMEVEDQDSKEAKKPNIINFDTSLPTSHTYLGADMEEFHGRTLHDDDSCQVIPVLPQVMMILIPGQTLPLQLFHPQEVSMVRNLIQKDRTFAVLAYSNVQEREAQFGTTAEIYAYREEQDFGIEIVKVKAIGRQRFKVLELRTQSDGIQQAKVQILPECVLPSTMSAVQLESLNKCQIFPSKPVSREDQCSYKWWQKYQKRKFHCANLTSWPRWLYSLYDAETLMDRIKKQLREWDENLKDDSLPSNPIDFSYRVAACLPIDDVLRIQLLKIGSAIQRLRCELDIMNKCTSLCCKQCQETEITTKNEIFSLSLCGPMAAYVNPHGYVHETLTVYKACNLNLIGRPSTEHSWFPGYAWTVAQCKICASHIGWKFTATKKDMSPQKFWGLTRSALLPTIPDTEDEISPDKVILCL
CRBN-DDB1, sequence (Q16531 whole entry partner): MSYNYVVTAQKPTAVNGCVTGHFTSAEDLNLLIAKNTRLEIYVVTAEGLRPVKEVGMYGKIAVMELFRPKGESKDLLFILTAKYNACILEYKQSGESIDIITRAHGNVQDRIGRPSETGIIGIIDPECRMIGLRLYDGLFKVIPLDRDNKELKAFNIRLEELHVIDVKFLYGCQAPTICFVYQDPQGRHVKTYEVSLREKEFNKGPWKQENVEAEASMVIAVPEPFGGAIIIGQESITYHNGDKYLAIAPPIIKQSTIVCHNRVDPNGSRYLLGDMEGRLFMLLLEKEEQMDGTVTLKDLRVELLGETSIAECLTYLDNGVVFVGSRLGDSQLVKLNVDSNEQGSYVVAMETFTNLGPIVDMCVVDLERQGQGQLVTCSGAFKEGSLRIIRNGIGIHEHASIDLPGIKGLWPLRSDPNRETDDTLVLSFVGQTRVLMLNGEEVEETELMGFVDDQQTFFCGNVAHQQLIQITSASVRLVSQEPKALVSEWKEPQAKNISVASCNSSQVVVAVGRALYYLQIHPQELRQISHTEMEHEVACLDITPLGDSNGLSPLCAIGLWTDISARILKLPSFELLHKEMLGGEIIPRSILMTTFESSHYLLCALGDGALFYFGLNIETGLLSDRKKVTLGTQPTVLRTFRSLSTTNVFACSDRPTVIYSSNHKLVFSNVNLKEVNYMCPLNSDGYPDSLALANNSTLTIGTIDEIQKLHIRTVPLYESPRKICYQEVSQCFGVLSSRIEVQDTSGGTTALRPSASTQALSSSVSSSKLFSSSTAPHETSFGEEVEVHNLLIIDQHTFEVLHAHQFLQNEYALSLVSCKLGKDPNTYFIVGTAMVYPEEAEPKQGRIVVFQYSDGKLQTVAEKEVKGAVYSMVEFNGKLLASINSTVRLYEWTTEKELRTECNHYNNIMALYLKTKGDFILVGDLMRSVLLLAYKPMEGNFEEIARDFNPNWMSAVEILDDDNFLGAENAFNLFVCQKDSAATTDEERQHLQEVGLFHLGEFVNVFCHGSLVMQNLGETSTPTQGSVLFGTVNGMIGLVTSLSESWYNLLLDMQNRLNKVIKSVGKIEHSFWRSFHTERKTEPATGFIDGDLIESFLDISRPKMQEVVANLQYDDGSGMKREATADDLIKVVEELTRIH

As for `C[C@H]1C[C@@H]1COC(=O)NCc1ccc2c(c1)C(=O)N(C1CCC(=O)NC1=O)C2` (stereo partly drawn) [Compound 25, [(1S,2S)-2-methylcyclopropyl]methyl N-{[2-(2,6-dioxopiperidin-3-yl)-3-oxo-2,3-dihydro-1H-isoindol-5-yl]methyl}carbamate], the Dmax on CDK2 is at most 10%. This molecule also gave a Ki at CRBN-DDB1 of 100 to 1000 nM.

`C[C@H](OC(=O)NCc1ccc2c(c1)C(=O)N(C1CCC(=O)NC1=O)C2)C1CC1` (stereo partly drawn) [Compound 28, (1S)-1-cyclopropylethyl N-{[2-(2,6-dioxopiperidin-3-yl)-3-oxo-2,3-dihydro-1H-isoindol-5-yl]methyl}carbamate] had a Dmax at CDK2 of 10 to 50%. Also, the Ki on CRBN-DDB1 was 100 to 1000 nM.

`O=C1CCC(N2Cc3ccc(CNC(=O)OC[C@H]4CCCO4)cc3C2=O)C(=O)N1` (stereo partly drawn) [Compound 29, [(2R)-oxolan-2-yl]methyl N-{[2-(2,6-dioxopiperidin-3-yl)-3-oxo-2,3-dihydro-1H-isoindol-5-yl]methyl}carbamate] gave a Dmax on CDK2 of at most 10%. At CRBN-DDB1, this molecule displayed an inhibition constant (Ki) of at most 100 nM.

Consider `C[C@H]1COC[C@@H]1OC(=O)NCc1ccc2c(c1)C(=O)N(C1CCC(=O)NC1=O)C2` (stereo partly drawn) [Compound 30, (3R,4S)-4-methyloxolan-3-yl N-{[2-(2,6-dioxopiperidin-3-yl)-3-oxo-2,3-dihydro-1H-isoindol-5-yl]methyl}carbamate], for which the maximal degradation (Dmax) on CDK2 is at most 10%. The Ki on CRBN-DDB1 was in the range of 100 to 1000 nM.

The molecule `CC1(C)CC(OC(=O)NCc2ccc3c(c2)C(=O)N(C2CCC(=O)NC2=O)C3)C1` (stereo not drawn) [Compound 31, 3,3-dimethylcyclobutyl N-{[2-(2,6-dioxopiperidin-3-yl)-3-oxo-2,3-dihydro-1H-isoindol-5-yl]methyl}carbamate] returned a Dmax at CDK2 of 10 to 50%. At CRBN-DDB1, the Ki fell in the range of 100 to 1000 nM.

As for `C[C@H]1CCC[C@@H]1OC(=O)NCc1ccc2c(c1)C(=O)N(C1CCC(=O)NC1=O)C2` (stereo partly drawn) [Compound 32, (1S,2S)-2-methylcyclopentyl N-{[2-(2,6-dioxopiperidin-3-yl)-3-oxo-2,3-dihydro-1H-isoindol-5-yl]methyl}carbamate], on CDK2, the Dmax lay within 10 to 50%. The same molecule showed a Ki on CRBN-DDB1 of 100 to 1000 nM.

On CDK2, `O=C1CCC(N2Cc3ccc(CNC(=O)OCCOC4COC4)cc3C2=O)C(=O)N1` (stereo not drawn) [Compound 33, 2-(oxetan-3-yloxy)ethyl N-{[2-(2,6-dioxopiperidin-3-yl)-3-oxo-2,3-dihydro-1H-isoindol-5-yl]methyl}carbamate] came in with a Dmax of 10 to 50%. Further, the Ki on CRBN-DDB1 lay in the range of 100 to 1000 nM.

In the case of `CN1CCC(COC(=O)NCc2ccc3c(c2)C(=O)N(C2CCC(=O)NC2=O)C3)CC1` (stereo not drawn) [Compound 34, (1-methylpiperidin-4-yl)methyl N-{[2-(2,6-dioxopiperidin-3-yl)-3-oxo-2,3-dihydro-1H-isoindol-5-yl]methyl}carbamate], the Dmax on CDK2 is at most 10%. This molecule displayed a Ki on CRBN-DDB1 of 100 to 1000 nM.

As for `O=C1CCC(N2Cc3ccc(CNC(=O)OC4Cc5ccccc54)cc3C2=O)C(=O)N1` (stereo not drawn) [Compound 35, bicyclo[4.2.0]octa-1,3,5-trien-7-yl N-{[2-(2,6-dioxopiperidin-3-yl)-3-oxo-2,3-dihydro-1H-isoindol-5-yl]methyl}carbamate], at CDK2, the greatest degradation seen (Dmax) fell in the range of 10 to 50%. This molecule also gave a Ki on CRBN-DDB1 of at most 100 nM.

At CDK2, `CN1C(=O)CCC1COC(=O)NCc1ccc2c(c1)C(=O)N(C1CCC(=O)NC1=O)C2` (stereo not drawn) [Compound 36, (1-methyl-5-oxopyrrolidin-2-yl)methyl N-{[2-(2,6-dioxopiperidin-3-yl)-3-oxo-2,3-dihydro-1H-isoindol-5-yl]methyl}carbamate] displayed a Dmax of at most 10%. On CRBN-DDB1, this molecule had a Ki of at most 100 nM.

On to `O=C1CCC(N2Cc3ccc(CNC(=O)OCC4(c5ccccc5)CC(F)(F)C4)cc3C2=O)C(=O)N1` (stereo not drawn) [Compound 38, (3,3-difluoro-1-phenylcyclobutyl)methyl N-{[2-(2,6-dioxopiperidin-3-yl)-3-oxo-2,3-dihydro-1H-isoindol-5-yl]methyl}carbamate], for which the Dmax at CDK2 lay in the range of 10 to 50%. Besides, the Ki on CRBN-DDB1 was at most 100 nM.

Molecule `CN1CCC(COC(=O)NCc2ccc3c(c2)C(=O)N(C2CCC(=O)NC2=O)C3)C1` (stereo not drawn) [Compound 39, (1-methylpyrrolidin-3-yl)methyl N-{[2-(2,6-dioxopiperidin-3-yl)-3-oxo-2,3-dihydro-1H-isoindol-5-yl]methyl}carbamate] came in with a Dmax at CDK2 of at most 10%. Moreover, the Ki at CRBN-DDB1 is 100 to 1000 nM.

Consider `CN1CCC(OC(=O)NCc2ccc3c(c2)C(=O)N(C2CCC(=O)NC2=O)C3)C1` (stereo not drawn) [Compound 40, 1-methylpyrrolidin-3-yl N-{[2-(2,6-dioxopiperidin-3-yl)-3-oxo-2,3-dihydro-1H-isoindol-5-yl]methyl}carbamate], for which the Dmax on CDK2 is at most 10%. Besides, the Ki at CRBN-DDB1 was 100 to 1000 nM.

The molecule `O=C1CCC(N2Cc3ccc(CNC(=O)OCC4CCCCO4)cc3C2=O)C(=O)N1` (stereo not drawn) [Compound 41, (oxan-2-yl)methyl N-{[2-(2,6-dioxopiperidin-3-yl)-3-oxo-2,3-dihydro-1H-isoindol-5-yl]methyl}carbamate] came in with a Dmax on CDK2 of 10 to 50%. Further, the Ki at CRBN-DDB1 lay in the range of 100 to 1000 nM.

For the molecule `O=C1CCC(N2Cc3ccc(CNC(=O)OCC4CCOC4)cc3C2=O)C(=O)N1` (stereo not drawn) [Compound 43, (oxolan-3-yl)methyl N-{[2-(2,6-dioxopiperidin-3-yl)-3-oxo-2,3-dihydro-1H-isoindol-5-yl]methyl}carbamate], the Dmax on CDK2 lay in the range of 10 to 50%. Moreover, the Ki on CRBN-DDB1 was at most 100 nM.

For `O=C1CCC(N2Cc3ccc(CNC(=O)OCC4CC(F)(F)C4)cc3C2=O)C(=O)N1` (stereo not drawn) [Compound 46, (3,3-difluorocyclobutyl)methyl N-{[2-(2,6-dioxopiperidin-3-yl)-3-oxo-2,3-dihydro-1H-isoindol-5-yl]methyl}carbamate], on CDK2, the Dmax lay within 10 to 50%. This molecule gave a Ki at CRBN-DDB1 of at most 100 nM.

Take `O=C1CCC(N2Cc3ccc(CNC(=O)OCCC4CC(F)(F)C4)cc3C2=O)C(=O)N1` (stereo not drawn) [Compound 47, 2-(3,3-difluorocyclobutyl)ethyl N-{[2-(2,6-dioxopiperidin-3-yl)-3-oxo-2,3-dihydro-1H-isoindol-5-yl]methyl}carbamate]: the Dmax on CDK2 lay within 10 to 50%. Besides, the Ki at CRBN-DDB1 is 100 to 1000 nM.

On to `O=C1CCC(N2Cc3ccc(CNC(=O)OCC4CC45CCOCC5)cc3C2=O)C(=O)N1` (stereo not drawn) [Compound 52, {6-oxaspiro[2.5]octan-1-yl}methyl N-{[2-(2,6-dioxopiperidin-3-yl)-3-oxo-2,3-dihydro-1H-isoindol-5-yl]methyl}carbamate], for which, on CDK2, the Dmax was 10 to 50%. The molecule also had a Ki on CRBN-DDB1 of 100 to 1000 nM.

For `O=C1CCC(N2Cc3ccc(CNC(=O)OCC4CCC(F)(F)C4)cc3C2=O)C(=O)N1` (stereo not drawn) [Compound 54, (3,3-difluorocyclopentyl)methyl N-{[2-(2,6-dioxopiperidin-3-yl)-3-oxo-2,3-dihydro-1H-isoindol-5-yl]methyl}carbamate], the maximal degradation (Dmax) on CDK2 is 10 to 50%. Besides, on CRBN-DDB1, the Ki was in the range of 100 to 1000 nM.

On CDK2, `CC1(COC(=O)NCc2ccc3c(c2)C(=O)N(C2CCC(=O)NC2=O)C3)CCCCO1` (stereo not drawn) [Compound 64, (2-methyloxan-2-yl)methyl N-{[2-(2,6-dioxopiperidin-3-yl)-3-oxo-2,3-dihydro-1H-isoindol-5-yl]methyl}carbamate] displayed a Dmax of 10 to 50%. At CRBN-DDB1, this molecule showed a Ki of at most 100 nM.

In the case of `CC1(CCCOC(=O)NCc2ccc3c(c2)C(=O)N(C2CCC(=O)NC2=O)C3)CC1` (stereo not drawn) [Compound 65, 3-(1-methylcyclopropyl)propyl N-{[2-(2,6-dioxopiperidin-3-yl)-3-oxo-2,3-dihydro-1H-isoindol-5-yl]methyl}carbamate], the Dmax at CDK2 lay within 50 to 80%. Further, the Ki on CRBN-DDB1 was at most 100 nM.

As usually defined, the Dmax is the greatest extent of degradation seen. What is called Ki is the equilibrium dissociation constant of an inhibitor or competing ligand from its target.
